Measured values taken from patent publication US11077194B2, “Nitric oxide releasing pharmaceutical compositions” (Novan, Inc., priority 2012, dated 2021).
Marks after values point to notes of the source that are not given here.

System: oxazolone-induced ear swelling
Assay: Oxazolone-induced ear swelling assay (model of allergic contact dermatitis)
Format: in vivo, BALB/c mice
Conditions: TOP
Description: Groups of 5 BALB/c male mice weighing 22±2 g were used. The animals were sensitized by application of oxazolone (100 μL, 1.5% in acetone) to their preshaved abdominal surface. Seven days later, test substances (20 mg/ear) and vehicle (20 μL/ear) were applied topically to the anterior and posterior surfaces of the right ear 30 min before and 15 min after oxazolone (1%, 20 μL/ear) challenge. Ear swelling was measured with a Dyer model micrometer gauge at 24 hours after oxazolone challenge as an index of inflammation. Ear edema was calculated by subtracting the thickness of the left ear (normal control) from the right ear (treated ear). Percent inhibition was calculated according to the formula: (Ic−It)/Ic×100, where Ic and It refers to increase of ear thickness (mm) in control and treated mice, respectively. One-way ANOVA and Dunnett's test were used to determine statistical significance between vehicle control and treated groups. Significance is set at P<0.05.
Test articles (0.2% and 2% Nitricil™ NVN1 Ointment) described in Example 6 were evaluated for possible anti-inflammatory activity in the oxazolone-induced ear swelling assay in BALB/c mice, a model of allergic contact dermatitis. Test substances and vehicles were each administered topically (TOP) at 30 minutes before and 15 minutes after challenge with the second application of oxazolone.
The test system used was a 7-day oxazolone-induced ear swelling assay. Oxazolone-induced ear swelling is useful as a model of inflammation. […] Ear swelling was measured with a Dyer model micrometer gauge at 24 hours after oxazolone challenge as an index of inflammation. Ear edema was calculated by subtracting the thickness of the left ear (normal control) from the right ear (treated ear) (Table 18). […]
Percent inhibition was calculated according to the formula: (Ic−It)/Ic×100, where Ic and It refer to increase of ear thickness (mm) in control and treated mice, respectively. […]

C[C@@H]1C[C@H]2[C@@H]3CCC4=CC(=O)C=C[C@]4(C)[C@@]3(F)[C@@H](O)C[C@]2(C)[C@@]1(O)C(=O)CO [Dexamethasone]
Ear Swelling % Inhibition (vs. Vehicle A, acetone/ethanol 1/1) (Example 7 study, ointments 20 mg/ear × 2, dexamethasone 0.3 mg/ear × 2, 24 hours after challenge): 85* %
% inhibition of oxazolone-induced ear swelling vs acetone/ethanol vehicle (Example 9 study, ointments 20 mg/ear × 2, dexamethasone 0.1 mg/ear × 2): 86%
Net Swelling on Right Ear (Mean ± SEM) (Example 9 study, ointments 20 mg/ear × 2, dexamethasone 0.1 mg/ear × 2, 24 hours after challenge): 3.2 ± 0.4 × 0.01 mm
